Assay [1] concerns the target T1, LK35.2-hPD-L1 cells / PE-labeled PD-1-Ig (Homo sapiens, UniProt Q9NZQ7).
T1 construct: expressed in transfected cells; host or cells: LK35.2 mouse B cell line
Kind of assay: LK35.2-hPD-L1 cell binding high-content screening assay. The class given is cell-based. Particulars: cluster symbol, cell line of CBA not given (LK35.2-hPD-L1 or 293T-hPD-L1). The method, boiled down: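 Fluorescent PD-1-Ig binding to PD-L1-expressing LK35.2 cells, imaged after washing. Conditions: 1 nM PE-PD-1-Ig, 37 °C, 1 h, RPMI with 10% fetal calf serum.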

For assay [2], the target named is T2, Human PD-L1/PD-1 (Homo sapiens, UniProt Q9NZQ7).
T2 construct: made in house; host or cells: HEK293T
T2 sequence (Q9NZQ7 with tags, fused parts or gaps): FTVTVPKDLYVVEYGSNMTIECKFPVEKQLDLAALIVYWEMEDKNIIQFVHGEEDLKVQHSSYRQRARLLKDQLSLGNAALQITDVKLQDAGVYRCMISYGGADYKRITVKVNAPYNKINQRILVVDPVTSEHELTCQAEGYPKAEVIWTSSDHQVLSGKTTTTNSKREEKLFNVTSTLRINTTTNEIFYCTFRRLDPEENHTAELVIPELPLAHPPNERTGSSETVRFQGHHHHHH
Kind of assay: HTRF PD-1-Ig/PD-L1-His binding assay (human PD-L1). Particulars: cluster symbol. Put shortly: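 Readout: time-resolved FRET between Eu cryptate-labeled anti-Ig (1 nM final) and APC-labeled anti-His (20 nM final) antibodies. These detect interaction of Fc-fused PD-1 with His-tagged human PD-L1 in dPBS containing 0.1% BSA and 0.05% Tween-20.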
A general note: Time-resolved FRET reads energy transfer from a long-lived donor to a nearby acceptor.

Each structure is given as a SMILES string. Where two headings read alike, the source gives them in different places. Positions of bridges follow the written chain, without caps; N, C: chain ends. Non-standard residues stand in square brackets, D forms with d. Residues, ends and D or L forms follow the SMILES beside them. pY = N[C@@H](Cc1ccc(OP(=O)(O)O)cc1)C(=O)O; Phe(4-Cl) = N[C@@H](Cc1ccc(Cl)cc1)C(=O)O; NMeF = CN[C@@H](Cc1ccccc1)C(=O)O; NMeNle = CCCC[C@H](NC)C(=O)O; Sar = CNCC(=O)O

T1 sequence (Q9NZQ7 19-290): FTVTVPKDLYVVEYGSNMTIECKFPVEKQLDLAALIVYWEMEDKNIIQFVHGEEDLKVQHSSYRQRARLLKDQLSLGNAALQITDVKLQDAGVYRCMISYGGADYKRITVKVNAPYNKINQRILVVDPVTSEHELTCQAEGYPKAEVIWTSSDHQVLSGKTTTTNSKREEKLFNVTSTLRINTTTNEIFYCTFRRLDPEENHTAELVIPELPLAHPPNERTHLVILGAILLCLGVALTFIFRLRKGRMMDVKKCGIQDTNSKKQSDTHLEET

Consider `CCCC[C@H]1C(=O)N(C)CC(=O)N[C@@H](CC(=O)O)C(=O)N[C@@H](C(C)C)C(=O)N(C)[C@@H](Cc2ccccc2)C(=O)N[C@@H](Cc2ccc(O)cc2)C(=O)N(C)CC(=O)N[C@@H](Cc2c[nH]c3ccccc23)C(=O)N[C@@H](Cc2ccc(O)cc2)C(=O)N[C@@H](CC(C)C)C(=O)N[C@H](C(=O)NCC(N)=O)CSCC(=O)N[C@@H](Cc2ccccc2)C(=O)N(C)[C@@H](CCC(=O)O)C(=O)N1C` [Example 3064] (HELM PEPTIDE1{[O=C(C[*:3])[*:2]].F.[meE].[CCCC[C@@H](C(=O)[*:2])N(C)[*:1]].[Sar].D.V.[meF].Y.[Sar].W.Y.L.C.G.[am]}$PEPTIDE1,PEPTIDE1,1:R3-14:R3$$$V2.0), for which the IC50 – broadly, the point on the concentration scale where inhibition reaches its midpoint – is greater than 74.3 nM in assay [1] (read-out: CBA IC50 cluster) and 6.76 to 30.3 nM in assay [2] (read-out: HTRF IC50 cluster).

For `CCCC[C@H]1C(=O)N(C)CC(=O)N[C@@H](CC(=O)O)C(=O)N[C@@H](C(C)C)C(=O)N(C)[C@@H](Cc2ccccc2)C(=O)N[C@@H](Cc2ccc(O)cc2)C(=O)N(C)CC(=O)N[C@@H](Cc2c[nH]c3ccccc23)C(=O)N[C@@H](Cc2ccc(O)cc2)C(=O)N[C@@H](CC(C)C)C(=O)N[C@H](C(=O)NCC(N)=O)CSCC(=O)N[C@@H](Cc2ccc(O)cc2)C(=O)N(C)[C@@H](Cc2ccccc2)C(=O)N1C` [Example 3065] (HELM PEPTIDE1{[O=C(C[*:3])[*:2]].Y.[meF].[CCCC[C@@H](C(=O)[*:2])N(C)[*:1]].[Sar].D.V.[meF].Y.[Sar].W.Y.L.C.G.[am]}$PEPTIDE1,PEPTIDE1,1:R3-14:R3$$$V2.0), the results for the IC50 in assay [1] (read-out: CBA IC50 cluster) and in assay [2] (read-out: HTRF IC50 cluster) were greater than 74.3 nM and greater than 30.5 nM, respectively.

For the compound `CCCC[C@H]1C(=O)N(C)CC(=O)N[C@@H](CC(=O)O)C(=O)N[C@@H](C(C)C)C(=O)N(C)[C@@H](Cc2ccccc2)C(=O)N[C@@H](Cc2ccc(O)cc2)C(=O)N(C)CC(=O)N[C@@H](Cc2c[nH]c3ccccc23)C(=O)N[C@@H](Cc2ccc(O)cc2)C(=O)N[C@@H](CC(C)C)C(=O)N[C@H](C(=O)NCC(N)=O)CSCC(=O)N[C@@H](Cc2ccc(OP(=O)(O)O)cc2)C(=O)N(C)[C@@H](Cc2ccccc2)C(=O)N1C` [Example 3066] ({CH2CO}-[pY][NMeF][NMeNle][Sar]DV[NMeF]Y[Sar]WYLCG-NH2; thioether N-13), the IC50 is greater than 74.3 nM in assay [1] (CBA IC50 cluster) and greater than 30.5 nM in assay [2] (HTRF IC50 cluster).

`CCCC[C@H]1C(=O)N(C)CC(=O)N[C@@H](CC(=O)O)C(=O)N[C@@H](C(C)C)C(=O)N(C)[C@@H](Cc2ccccc2)C(=O)N[C@@H](Cc2ccc(O)cc2)C(=O)N(C)CC(=O)N[C@@H](Cc2c[nH]c3ccccc23)C(=O)N[C@@H](Cc2ccc(O)cc2)C(=O)N[C@@H](CC(C)C)C(=O)N[C@H](C(=O)NCC(N)=O)CSCC(=O)N[C@@H](Cc2ccc(Cl)cc2)C(=O)N(C)[C@@H](Cc2ccccc2)C(=O)N1C` [Example 3067] ({CH2CO}-[Phe(4-Cl)][NMeF][NMeNle][Sar]DV[NMeF]Y[Sar]WYLCG-NH2; thioether N-13): the IC50 was 0.158 to 4.71 nM in assay [1] (read-out: CBA IC50 cluster) and 0.385 to 6.74 nM in assay [2] (read-out: HTRF IC50 cluster).

For `CCCC[C@H]1C(=O)N2CCC[C@H]2C(=O)N[C@@H](CC(=O)O)C(=O)N[C@@H](C(C)C)C(=O)N(C)[C@@H](Cc2ccccc2)C(=O)N[C@@H](Cc2ccc(O)cc2)C(=O)N(C)CC(=O)N[C@@H](Cc2c[nH]c3ccccc23)C(=O)N[C@@H](Cc2ccc(O)cc2)C(=O)N[C@@H](CC(C)C)C(=O)N[C@H](C(=O)NCC(N)=O)CSCC(=O)N[C@@H](Cc2ccccc2)C(=O)N(C)[C@@H](Cc2ccccc2)C(=O)N1C` [Example 3068] (HELM PEPTIDE1{[O=C(C[*:3])[*:2]].F.[meF].[CCCC[C@@H](C(=O)[*:2])N(C)[*:1]].P.D.V.[meF].Y.[Sar].W.Y.L.C.G.[am]}$PEPTIDE1,PEPTIDE1,1:R3-14:R3$$$V2.0), the IC50 in assay [1] (read-out: CBA IC50 cluster) was greater than 74.3 nM; in assay [2] (read-out: HTRF IC50 cluster) it was greater than 30.5 nM.

Regarding `CCCC[C@H]1C(=O)N(C)CC(=O)N[C@@H](CC(=O)O)C(=O)N[C@@H](C(C)C)C(=O)N(C)[C@@H](Cc2ccccc2)C(=O)N[C@@H](Cc2ccc(O)cc2)C(=O)N2CCC[C@H]2C(=O)N[C@@H](Cc2c[nH]c3ccccc23)C(=O)N[C@@H](Cc2ccc(O)cc2)C(=O)N[C@@H](CC(C)C)C(=O)N[C@H](C(=O)NCC(N)=O)CSCC(=O)N[C@@H](Cc2ccccc2)C(=O)N(C)[C@@H](Cc2ccccc2)C(=O)N1C` [Example 3069] (HELM PEPTIDE1{[O=C(C[*:3])[*:2]].F.[meF].[CCCC[C@@H](C(=O)[*:2])N(C)[*:1]].[Sar].D.V.[meF].Y.P.W.Y.L.C.G.[am]}$PEPTIDE1,PEPTIDE1,1:R3-14:R3$$$V2.0), the IC50 was greater than 74.3 nM in assay [1] (read-out: CBA IC50 cluster) and greater than 30.5 nM in assay [2] (read-out: HTRF IC50 cluster).
